Converted amounts (≈) assume the structure as drawn.
How the values were obtained:
[1] = Solubility of EGCG and tannic acid in propylene glycol and PEG 300
Description: EGCG and tannic acid are fairly soluble in alcohol and acetonitrile. […] These solutions become more viscous and paste-like as the percentage of gallate in solution is increased. When non-drug containing pastes were placed in water, the contents of the paste (gallate, PG or PEG), which are all water soluble, dissolved away.

[2] = Release from PLGA microspheres +/- EGCG or tannic acid; format: physicochemical; settings: over a 10 days period
Description: Method: The method involved pipetting a solution of the polymer PLGA (usually 20% w/v) and drug (usually 5% w/w to polymer) and EGCG (e.g. 20% w/w/ to polymer) in dichlomethane (DCM) (5 ml) into 100 ml of 2.5% PVA solution in water stirring at 450 rpm. The suspension was left stirring for 2 hours and the microspheres washed 4 times in distilled water. The microspheres were then dried under vacuum for 2 days. Drug encapsulation was measured by dissolving a known weight of microspheres in 1 ml of dichloromethane followed by immediate dilution to 10 ml in 60:40 acetonitrile/water. The amount of drug or EGCG in the top and bottom phase of this solution was measured using HPLC methods (mobile phase 58:37:5 Acetonitrile:water:methanol. 1 ml per min flow on a c18 column with detection at 232 nm)
Tannic acid: An alternative method was used, termed a water-in oil-in water emulsion. […] This forms a primary emulsion of water droplets in the PLGA solution stabilized by Span. When this emulsion was pipetted into the PVA solution the microspheres formed well. […] The microspheres were a light brown in color indicative of tannic acid encapsulation.
Methods: In these studies, 10 mg of microspheres were suspended in 2 ml of phosphate buffered saline (pH 7.4 10 mM phosphate) in microcentrifuge tubes and tumbled at 8 rpm at 37° C. The tubes were then centrifuged at 12000×g and the supernatants collected for drug analysis by HPLC. 2 ml of fresh PBS was then placed on top of the microspheres which were returned to the 37° C. oven for continued incubation with tumbling.
At the end of the study the residual mass of polymer and drug was dissolved in DCM and drug extracted into 60:40 acetonitrile:water to measure residual drug. The amounts of residual drug were 89% for plga alone (at 31 days), 16% for EGCG and 8% for tannic acid (both at 51 days) as expressed as a % of the original loading.

[3] = Drug concentrations obtained using EGCG at 50 mg per ml (microscopic check for particulates); format: physicochemical; settings: for Drug Concentration: 1 ml of water; for Particulates present: under a microscope
Description: EGCG at 50 mg/ml and drug at approximately 250 micrograms per ml were dissolved in the listed solvent and dried down in a test tube under nitrogen. 1 ml of water was added, followed by vortexing. The solutions were examined for particulate matter under a microscope. If no particulates were present, the process was repeated with a higher drug amount. All the tested drugs remained in solution at the listed concentrations except for nystatin and hesperidin.

[4] = Lidocaine release from propylene glycol:gallate pastes into PBS; format: physicochemical
Description: For each formulation, 100 mg of paste was placed in the base of a round bottomed 15 mL glass test tube. […] At the start of the release experiment, 10 ml of PBS was added and the tubes left for various time periods, after which all 10 mL of the release media was removed for drug analysis. The residual mass was observed from the top, and the drop in diameter from 8 mm noted as a semi-quantitative assessed of paste pellet degradation. It was not possible to measure the degradation fully quantitatively at that time, as the pellets were fragile and water-swollen. After a few days the pellets became less fragile, and were removed from the tubes and dried on tissue paper before weighing. The drop in weight from 100 mg was then noted as the % degradation and compared with the visual observations.

[5] = Solubility of drug in EGCG or tannic acid solutions (dried down, PBS or water added, 0.22 micron filtered, HPLC or absorbance)
pig skin = system: pig skin
Description: Various gallate-containing drug formulations were prepared and applied to ex vivo pig skin samples. Fresh pig skin was obtained from a local butcher, processed within three hours and then frozen. For experiments, the skin was slowly thawed, excess fat removed from the base, and cut into 1×2 cm squares. These squares were mounted and clamped on Franz diffusion cells, which kept the tissue moist and isolated and exposed a 6 mm diameter of the upper skin surface for the application of a drug loaded formulation. Skin samples were then frozen and later cryosectioned in 50 μm slices. The drug in the slices was extracted and measured by HPLC or radioactive doping methods. A drug depth profile was then established for each drug.
1. Formulations containing a drug and a gallate. The drugs were dissolved in ethanol at various concentrations along with either EGCG or TA (500 mg/mL). Each solution was pipetted into 6×5 mm diameter aluminum cups (approximately 3 mm in height) by filling and allowing the ethanol to evaporate at 50° C. until all the solution was used up (80 mg per cup).
2. Formulations containing a drug, propylene glycol (“PG”) and a gallate. 300 mg of propylene glycol was mixed with 200 mg of EGCG or TA until dissolved. Various amounts of drug were added to this mixture and dissolved. 80 mg of the resulting viscous solution was weighed into 6×5 mm aluminum cups.
3. Control Formulations. Control formulations were prepared using Glaxal base and Plogel. Glaxal base is a cream used by compounding pharmacists to manufacture topical formulations of drugs. Plogel is an alternative used for dermal formulations. […] Drug was added to a known weight of Glaxal or Plogel and levigated to produce a standard drug dispersion. These formulations were prepared the evening before the experiment. For some drugs, radioactive drug (where available) was also added as a doping additive to facilitate quantitation in tissues.
Eutectics: In some cases, gallate containing compounds and drugs were formulated in eutectic mixtures. These included a 60:40 (% w/w) mixture of menthol with ibuprofen. These agents acted as a carrier for retinoic acid, which was then dissolved in this liquid. The 3-drug eutectic/solution was then blended into the CMC/poloxamer emulsion containing EGCG (2.5%). […] The emulsion was stabilized with poloxamer.
Example 29. Pig skin studies. Aluminum cups containing drug formulations were inverted on top of the pig skin in the Franz diffusion cell so that the formulation contents were in contact with the skin. […]
Analysis. […] The amount of drug in each group of skin sections was then determined using HPLC methods, or by radioactivity counting on a liquid scintillation counter. The amount of drug in each group of skin sections was expressed as μg/g or mg/g of tissue.

SMILES: O=C(O[C@@H]1Cc2c(O)cc(O)cc2O[C@@H]1c1cc(O)c(O)c(O)c1)c1cc(O)c(O)c(O)c1 [EGCG, epi gallo catechin gallate]
- solubility in PEG 300 liquid [1]: 25 % w/w
- solubility in propylene glycol [1]: higher than 50 % w/w
- release of EGCG or Tannic acid from PLGA microspheres [2]: approximately 45%

SMILES: CC(C)(C)[C@]1(O)CC2OC(=O)CC23C(=O)OC2OC(=O)[C@H](O)C231 (some centres unmarked) [bilobalide]
- Visual appearance [3]: clear solution
- Drug Concentration [3]: 250 microgram/ml
- Particulates present [3]: no

SMILES: CC[C@@]1(O)C(=O)OCc2c1cc1n(c2=O)Cc2cc3ccccc3nc2-1 [camptothecin]
- Visual appearance [3]: clear
- Drug Concentration [3]: 50 microgram/ml
- Particulates present [3]: no

SMILES: CC1C(=O)OC2C(O)C34C5CC(C(C)(C)C)C36C(OC(=O)C6O)OC4(C(=O)O5)C12O (centres unmarked) [ginkgolide B]
- Visual appearance [3]: clear solution
- Drug Concentration [3]: 250 microgram/ml
- Particulates present [3]: no

SMILES: COc1ccc([C@@H]2CC(=O)c3c(O)cc(O[C@@H]4O[C@H](CO[C@@H]5O[C@@H](C)[C@H](O)[C@@H](O)[C@H]5O)[C@@H](O)[C@H](O)[C@H]4O)cc3O2)cc1O [hesperedin]
- Visual appearance [3]: almost clear
- Drug Concentration [3]: 125 microgram/ml
- Particulates present [3]: very

SMILES: COc1ccc([C@@H]2CC(=O)c3c(O)cc(O)cc3O2)cc1O [hesperetin]
- Visual appearance [3]: clear solution
- Drug Concentration [3]: 250 microgram/ml
- Particulates present [3]: no

SMILES: COc1ccc2c(c1)c(CC(=O)O)c(C)n2C(=O)c1ccc(Cl)cc1 [indomethacin]
- Visual appearance [3]: clear solution
- Drug Concentration [3]: 250 microgram/ml
- Particulates present [3]: no

SMILES: CCN(CC)CC(=O)Nc1c(C)cccc1C [lidocaine]
- period of drug release ([4]; EGCG:propylene glycol pastes, 20% drug loading): 2-4 weeks
- drug release ([4]; all EGCG:propylene glycol pastes, 5% drug loading, in approximately 2 days): ~100%
- period of drug release ([4]; tannic acid:propylene glycol pastes, 5% drug loading): ~7 days
- period of drug release ([4]; tannic acid:propylene glycol pastes, 20% drug loading): 4-5 weeks

SMILES: C[C@@H]1[C@H](O)[C@@H](C)/C=C/C=C/CC/C=C/C=C/C=C/C=C/C(O[C@H]2O[C@H](C)[C@@H](O)[C@H](N)[C@@H]2O)CC2O[C@](O)(CC(O)C(O)CCC(O)CC(O)CC(O)CC(=O)O[C@H]1C)CC(O)C2C(=O)O (some centres unmarked) [nystatin]
- Visual appearance [3]: clear solution
- Drug Concentration [3]: 125 microgram/ml
- Particulates present [3]: very

SMILES: CC1=CC(=O)c2c(O)cccc2C1=O [plumbagin]
- Visual appearance [3]: clear
- Drug Concentration [3]: 250 microgram/ml
- Particulates present [3]: no

SMILES: O=c1c(O)c(-c2ccc(O)c(O)c2)oc2cc(O)cc(O)c12 [quercetin]
- Visual appearance [3]: clear
- Drug Concentration [3]: 250 microgram/ml
- Particulates present [3]: no

SMILES: CO[C@H]1C[C@@H]2CC[C@@H](C)[C@@](O)(O2)C(=O)C(=O)N2CCCC[C@H]2C(=O)O[C@H]([C@H](C)C[C@@H]2CC[C@@H](O)[C@H](OC)C2)CC(=O)[C@H](C)/C=C(\C)[C@@H](O)[C@@H](OC)C(=O)[C@H](C)C[C@H](C)/C=C/C=C/C=C/1C [rapamycin]
- solubility ([5]; EGCG solution (200 mg/ml) in PBS, aqueous with cosolvent or surfactant or cyclodextrin, thermodynamic from solid, drug concentration solubilised at maximum EGCG concentration, EGCG 200 mg per ml, PBS): ~300 µg/mL (≈ 328 µM)
- effect of temperature on solubility ([5]; EGCG solutions): little effect of temperature
- stability of EGCG solutions of the drug ([5]; EGCG solutions, 24 hours): stable for 24 hours
- solubility ([5]; tannic acid solution (500 mg/ml) in water, aqueous with cosolvent or surfactant or cyclodextrin, thermodynamic from solid, drug concentration solubilised at maximum tannic acid concentration, tannic acid 500 mg/ml, water): ~1500 µg/mL (≈ 1640 µM)
- stability of tannic acid solutions of the drug ([5]; tannic acid solutions, 24 hours): stable for 24 hours
- effect of temperature on solubility ([5]; tannic acid solutions, 37° C. or 50° C. compared to 23° C.): no effect of temperature
- solubility ([5]; water, free solubility in water, no EGCG or tannic acid): 2 to 3 µg/mL (≈ 2.19 to 3.28 µM)

SMILES: CC1=C(/C=C/C(C)=C/C=C/C(C)=C/C(=O)O)C(C)(C)CCC1 [retinoic acid]
- drug uptake by pig skin relative to controls (pig skin): higher levels of uptake as compared to the control formulations

SMILES: O=C(OC[C@H]1O[C@@H](OC(=O)c2cc(O)c(O)c(OC(=O)c3cc(O)c(O)c(O)c3)c2)[C@H](OC(=O)c2cc(O)c(O)c(OC(=O)c3cc(O)c(O)c(O)c3)c2)[C@@H](OC(=O)c2cc(O)c(O)c(OC(=O)c3cc(O)c(O)c(O)c3)c2)[C@@H]1OC(=O)c1cc(O)c(O)c(OC(=O)c2cc(O)c(O)c(O)c2)c1)c1cc(O)c(O)c(OC(=O)c2cc(O)c(O)c(O)c2)c1 [tannic acid]
- solubility in PEG 300 liquid [1]: 25 % w/w
- release of EGCG or Tannic acid from PLGA microspheres [2]: ~65%
